Test results published in ChEMBL document CHEMBL1125730, “Dual inhibitors of thromboxane A2 synthase and 5-lipoxygenase with scavenging activity of active oxygen species. Synthesis of a novel series of (3-pyridylmethyl)benzoquinone derivatives” (J Med Chem, 1991).

Legend:
[1] = target: T1, Thromboxane-A synthase (Rattus norvegicus) (UniProt P49430); assay: Inhibition of rat thromboxane A2 synthase evaluated as percent inhibition of thromboxane B2 formation after 24 hr of administration at 10 mg/kg.; format: functional, organism-based; parameters: dose 10 mg/kg
T1 sequence (whole entry): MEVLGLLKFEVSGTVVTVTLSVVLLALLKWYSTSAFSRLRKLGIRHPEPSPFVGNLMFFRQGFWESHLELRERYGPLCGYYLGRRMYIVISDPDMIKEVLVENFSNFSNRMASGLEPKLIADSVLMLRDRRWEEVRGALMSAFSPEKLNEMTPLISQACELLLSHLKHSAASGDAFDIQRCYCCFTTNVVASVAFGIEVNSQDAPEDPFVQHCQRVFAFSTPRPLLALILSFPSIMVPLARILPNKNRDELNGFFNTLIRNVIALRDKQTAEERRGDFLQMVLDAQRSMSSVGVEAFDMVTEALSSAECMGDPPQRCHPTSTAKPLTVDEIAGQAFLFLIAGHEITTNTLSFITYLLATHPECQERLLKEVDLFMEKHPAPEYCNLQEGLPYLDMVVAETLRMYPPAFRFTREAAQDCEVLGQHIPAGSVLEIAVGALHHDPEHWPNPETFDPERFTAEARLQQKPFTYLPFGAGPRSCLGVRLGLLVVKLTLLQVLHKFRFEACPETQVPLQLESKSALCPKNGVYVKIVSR

[2] = target: T2, Polyunsaturated fatty acid 5-lipoxygenase (Rattus norvegicus, UniProt P12527)
T2 sequence (P12527 whole entry): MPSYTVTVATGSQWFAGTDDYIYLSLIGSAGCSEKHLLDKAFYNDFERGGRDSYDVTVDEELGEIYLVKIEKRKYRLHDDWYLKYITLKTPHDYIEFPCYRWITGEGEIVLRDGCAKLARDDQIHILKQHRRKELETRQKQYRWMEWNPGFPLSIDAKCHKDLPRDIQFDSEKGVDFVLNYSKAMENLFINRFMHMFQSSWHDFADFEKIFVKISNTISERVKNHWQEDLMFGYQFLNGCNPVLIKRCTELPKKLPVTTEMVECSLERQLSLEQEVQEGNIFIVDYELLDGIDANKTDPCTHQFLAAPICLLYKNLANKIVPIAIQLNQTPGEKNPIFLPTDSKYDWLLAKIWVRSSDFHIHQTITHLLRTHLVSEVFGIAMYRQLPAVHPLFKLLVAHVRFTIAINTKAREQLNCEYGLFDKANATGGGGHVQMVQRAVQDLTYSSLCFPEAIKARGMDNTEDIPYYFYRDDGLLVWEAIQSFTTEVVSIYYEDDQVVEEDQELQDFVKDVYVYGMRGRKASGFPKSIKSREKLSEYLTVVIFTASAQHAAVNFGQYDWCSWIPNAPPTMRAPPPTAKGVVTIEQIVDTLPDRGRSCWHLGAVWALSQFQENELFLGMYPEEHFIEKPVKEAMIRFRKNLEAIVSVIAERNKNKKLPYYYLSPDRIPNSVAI

[3] = physchem; conditions: octanol/water
Description: Partition coefficient (logP)

[4] = target: T3, Thromboxane-A synthase (Homo sapiens) (UniProt P24557); assay: Inhibitory activity of compound against thromboxane A2 synthase evaluated as percent inhibition of thromboxane B2 formation after 24 hr of administration of 10 mg/kg of compound in rat; format: functional, organism-based; parameters: dose 10 mg/kg
T3 sequence (whole entry): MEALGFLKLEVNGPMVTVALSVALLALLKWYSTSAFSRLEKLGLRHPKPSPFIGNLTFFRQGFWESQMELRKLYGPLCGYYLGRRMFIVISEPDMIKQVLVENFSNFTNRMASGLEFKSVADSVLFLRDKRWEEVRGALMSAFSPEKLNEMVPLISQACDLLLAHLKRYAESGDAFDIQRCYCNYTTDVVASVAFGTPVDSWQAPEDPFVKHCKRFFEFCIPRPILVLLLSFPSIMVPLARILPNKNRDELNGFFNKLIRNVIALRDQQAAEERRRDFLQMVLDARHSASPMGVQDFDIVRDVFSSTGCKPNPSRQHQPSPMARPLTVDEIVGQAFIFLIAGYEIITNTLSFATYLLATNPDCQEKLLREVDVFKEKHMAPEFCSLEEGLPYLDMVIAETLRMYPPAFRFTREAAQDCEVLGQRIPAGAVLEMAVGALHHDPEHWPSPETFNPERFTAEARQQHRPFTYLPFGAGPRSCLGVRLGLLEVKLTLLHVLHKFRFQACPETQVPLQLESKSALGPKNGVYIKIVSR

[5] = organism: Equus caballus; assay: The concentration required to reduce by 50% the amount of LTB4 formed by RBL-1 cells; format: functional, organism-based
[6] = test system: Rattus norvegicus; assay: Protective effect was evaluated by measuring the urinary albumin by peroral administering 100 mg/kg per day for four weeks in adriamycin induced proteinuria 7 rats for four weeks.; format: functional, Urine; conditions: route oral
[7] = test system: Rattus norvegicus; assay: Protective effect was evaluated by measuring the urinary total protein by peroral administering 100 mg/kg per day for four weeks in 7 rats for four weeks.; format: functional, Urine; conditions: route oral
[8] = test system: Rattus norvegicus; assay: Protective effect was evaluated by measuring the urinary total protein by peroral administering 100 mg/kg per day for four weeks in adriamycin induced proteinuria in 7 rats for four weeks.; format: functional, Urine; conditions: route oral
[9] = test system: Rattus norvegicus; assay: Compound was evaluated […] for percent inhibition of lipid peroxidation in rat brain homogenates at 10e-6 M; format: functional
[10] = target: T3, Thromboxane-A synthase (Homo sapiens); assay: Inhibitory activity of compound against thromboxane A2 synthase evaluated as percent inhibition of thromboxane B2 formed by incubating PGH-2 with horse platelet microsomes; format: functional; conditions: Equus caballus; target entry is the homologue from another species; concentration not given here
[11] = test system: Rattus norvegicus; assay: Protective effect was evaluated by measuring the urinary albumin by peroral administering 10 mg/kg per day for four weeks in 8 rats; format: functional, Urine; conditions: route oral
[12] = test system: Rattus norvegicus; assay: Protective effect was evaluated by measuring the urinary total protein by peroral administering 10 mg/kg per day for four weeks in 8 rats; format: functional, Urine; conditions: route oral
[13] = test system: RBL-1; assay: cells; conditions: Rattus norvegicus

Row | Compound | inhibition [1] | IC50 [2] | logP [3] | other results
1 | CC1=C(C)C(=O)C(C(CCCCCC(=O)O)c2cccnc2)=C(C)C1=O (centres undefined) | 90% | 9300 nM | 1.35 | 
2 | CCC(C1=C(C)C(=O)C(C)=C(C)C1=O)c1cccnc1 (centres undefined) | 75% | 660 nM | 3.35 | 
3 | CC(=O)OCCCCCC(C1=C(C)C(=O)C(C)=C(C)C1=O)c1cccnc1 (centres undefined) |  | 87 nM | 4.58 | inhibition [4]: 84%
4 | CC1=C(C)C(=O)C(C(CCCCCO)c2cccnc2)=C(C)C1=O (centres undefined) |  | 100 nM | 3.69 | inhibition [4]: 72%
5 | CC1=C(/C=C(\C)C(=O)O)C(=O)C(C)=C(Cc2cccnc2)C1=O | 73% | 8700 nM | -0.65 | 
6 | CCCCC/C=C(\C1=C(C)C(=O)C(C)=C(C)C1=O)c1cccnc1 |  |  | 5.05 | IC50 [5]: 220 nM
7 | CCCCC(C1=C(C)C(=O)C(C)=C(C)C1=O)c1cccnc1 (centres undefined) | 97% | 830 nM | 4.35 | 
8 | CC1=C(C)C(=O)C(C(CCCCO)c2cccnc2)=C(C)C1=O (centres undefined) | 40% | 100 nM | 3.19 | 
9 | CC1=C(/C=C/C(=O)O)C(=O)C(C)=C(Cc2cccnc2)C1=O | 90% | 8800 nM | -0.95 | 
10 | CC1=C(C)C(=O)C(C(CCCCC(=O)O)c2cccnc2)=C(C)C1=O (centres undefined) | 64% | 60000 nM | 0.85 | 
11 | O=C(O)CCCC/C=C(\c1ccccc1)c1cccnc1 [(E)-ISBOGREL] | 90% |  |  | Albumin [6]: 75 mg 100g-1 24hr-1; Total protein [7]: 131 mg 100g-1 24hr-1
12 | CCCCCCCCCCCCCCCCCCOC1=C(O)[C@@H](C(O)CO)OC1=O (some centres undefined) |  |  |  | Albumin [6]: 70 mg 100g-1 24hr-1; Total protein [8]: 122 mg 100g-1 24hr-1
13 | CCCCCCC(C1=C(C)C(=O)C(C)=C(C)C1=O)c1cccnc1 (centres undefined) | 70% | 73 nM | 5.35 | 
14 | CC1=C(C)C(=O)C(C(c2cccnc2)c2cccc(CCC(=O)O)c2)=C(C)C1=O (centres undefined) |  | 100000 nM | 2.08 | 
15 | CC1=C(C)C(=O)C(C(CCCC(=O)O)c2cccnc2)=C(C)C1=O (centres undefined) |  |  | 0.35 | IC50 [5]: 10000 nM; Inhibition [9]: 37%
16 | CC1=C(Cc2cccnc2)C(=O)c2ccccc2C1=O | 92% | 82 nM | 2.77 | 
17 | CC1=C(C)C(=O)C(C(C)c2cccnc2)=C(C)C1=O (centres undefined) | 90% | 9500 nM | 2.85 | inhibition [10]: 89%
18 | CCOC(=O)/C=C/C1=C(C)C(=O)C(Cc2cccnc2)=C(C)C1=O | 80% | 8 nM | 3.28 | 
19 | CC1=C(C)C(=O)C(Cc2cccnc2)=C(C)C1=O | 86% | 62 nM | 2.55 | Albumin [11]: 39 mg 100g-1 24hr-1; Total protein [12]: 60 mg 100g-1 24hr-1
20 | CCCCC/C=C(/C1=C(C)C(=O)C(C)=C(C)C1=O)c1cccnc1 |  |  | 5.05 | IC50 [13]: 260 nM
21 | CC1=C(C)C(=O)C(CCCCC#CCCCC#CCO)=C(C)C1=O [DOCEBENONE] |  | 90 nM |  | Albumin [6]: 49 mg 100g-1 24hr-1; Total protein [8]: 95 mg 100g-1 24hr-1
22 | CC1=C(C)C(=O)C(C(c2cccnc2)c2cccc(/C=C(\C)C(=O)O)c2)=C(C)C1=O (centres undefined) | 19% | 100000 nM | 2.08 | 
23 | CC1=C(C)C(=O)C(C(CCCCCCC(=O)O)c2cccnc2)=C(C)C1=O (centres undefined) | 97% | 7000 nM | 1.85 | 
24 | CC1=C(C)C(=O)C(/C(=C/CCCCC(=O)O)c2cccnc2)=C(C)C1=O | 91% | 7200 nM | 1.05 | 
25 | CC1=C(CCC(=O)O)C(=O)C(C)=C(Cc2cccnc2)C1=O | 86% | 5000 nM | -0.65 | 
26 | CC(=O)OCCCCC(C1=C(C)C(=O)C(C)=C(C)C1=O)c1cccnc1 (centres undefined) |  | 250 nM | 4.08 | inhibition [4]: 37%
27 | COC1=C(OC)C(=O)C(Cc2cccnc2)=C(C)C1=O | 74% |  | 0.61 | 
